Measurements taken from ChEMBL document CHEMBL5291721, “A preclinical secondary pharmacology resource illuminates target-adverse drug reaction associations of marketed drugs” (Nat Commun, 2023).
Where a SMILES comes first, the peptide text is derived from it.

Legend:
[1] = target: cGMP-inhibited 3',5'-cyclic phosphodiesterase 3A (Homo sapiens, UniProt Q14432); format: functional
[2] = target: Voltage-gated inwardly rectifying potassium channel KCNH2 (Homo sapiens, UniProt Q12809); format: functional
Voltage-gated inwardly rectifying potassium channel KCNH2, sequence (Q12809 whole entry): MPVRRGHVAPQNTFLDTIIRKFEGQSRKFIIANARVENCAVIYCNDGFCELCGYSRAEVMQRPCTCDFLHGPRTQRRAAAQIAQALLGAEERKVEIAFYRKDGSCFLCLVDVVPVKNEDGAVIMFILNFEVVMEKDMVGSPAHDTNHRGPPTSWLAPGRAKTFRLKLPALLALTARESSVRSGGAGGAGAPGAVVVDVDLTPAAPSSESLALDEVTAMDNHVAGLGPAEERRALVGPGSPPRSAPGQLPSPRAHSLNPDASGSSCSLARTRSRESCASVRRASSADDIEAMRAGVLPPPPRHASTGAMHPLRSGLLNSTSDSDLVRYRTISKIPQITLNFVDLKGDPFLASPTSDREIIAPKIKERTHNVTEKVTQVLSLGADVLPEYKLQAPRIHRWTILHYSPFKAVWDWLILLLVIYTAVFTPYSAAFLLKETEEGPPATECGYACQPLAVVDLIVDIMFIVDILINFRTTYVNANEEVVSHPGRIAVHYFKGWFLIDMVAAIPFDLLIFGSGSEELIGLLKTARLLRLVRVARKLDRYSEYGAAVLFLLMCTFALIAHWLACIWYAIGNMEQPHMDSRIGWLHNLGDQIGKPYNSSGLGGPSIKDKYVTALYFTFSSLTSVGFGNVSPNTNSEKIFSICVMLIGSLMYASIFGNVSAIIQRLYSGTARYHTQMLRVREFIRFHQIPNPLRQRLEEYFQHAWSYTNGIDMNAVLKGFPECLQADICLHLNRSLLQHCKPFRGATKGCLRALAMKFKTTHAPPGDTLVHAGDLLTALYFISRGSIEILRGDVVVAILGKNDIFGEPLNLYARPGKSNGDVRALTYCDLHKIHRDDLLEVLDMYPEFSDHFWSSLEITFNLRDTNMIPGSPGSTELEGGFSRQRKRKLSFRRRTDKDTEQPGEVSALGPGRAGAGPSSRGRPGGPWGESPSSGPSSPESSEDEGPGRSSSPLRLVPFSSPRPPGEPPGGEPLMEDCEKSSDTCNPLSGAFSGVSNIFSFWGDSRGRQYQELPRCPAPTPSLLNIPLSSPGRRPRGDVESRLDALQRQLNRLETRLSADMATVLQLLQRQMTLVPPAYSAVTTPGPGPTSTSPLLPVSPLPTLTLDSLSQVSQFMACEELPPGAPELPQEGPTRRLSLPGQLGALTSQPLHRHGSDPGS

[3] = target: T1, 5-hydroxytryptamine receptor 3A (Homo sapiens, UniProt P46098); format: functional
T1 sequence (P46098 whole entry): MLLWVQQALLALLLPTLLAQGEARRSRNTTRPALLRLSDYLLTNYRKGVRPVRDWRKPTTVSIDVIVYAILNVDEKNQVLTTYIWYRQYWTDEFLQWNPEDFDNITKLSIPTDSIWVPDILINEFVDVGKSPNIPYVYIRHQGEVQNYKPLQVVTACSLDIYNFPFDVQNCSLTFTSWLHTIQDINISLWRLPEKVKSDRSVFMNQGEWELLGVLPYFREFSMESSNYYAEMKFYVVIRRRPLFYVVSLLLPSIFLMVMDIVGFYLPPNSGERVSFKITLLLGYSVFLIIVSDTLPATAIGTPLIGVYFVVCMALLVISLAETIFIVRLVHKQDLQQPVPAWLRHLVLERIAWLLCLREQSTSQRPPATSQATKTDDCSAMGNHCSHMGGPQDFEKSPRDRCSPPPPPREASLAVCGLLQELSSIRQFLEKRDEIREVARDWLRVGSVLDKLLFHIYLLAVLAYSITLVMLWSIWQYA

Motilin receptor = Motilin receptor (Homo sapiens, UniProt O43193)
Motilin receptor, sequence (O43193 whole entry): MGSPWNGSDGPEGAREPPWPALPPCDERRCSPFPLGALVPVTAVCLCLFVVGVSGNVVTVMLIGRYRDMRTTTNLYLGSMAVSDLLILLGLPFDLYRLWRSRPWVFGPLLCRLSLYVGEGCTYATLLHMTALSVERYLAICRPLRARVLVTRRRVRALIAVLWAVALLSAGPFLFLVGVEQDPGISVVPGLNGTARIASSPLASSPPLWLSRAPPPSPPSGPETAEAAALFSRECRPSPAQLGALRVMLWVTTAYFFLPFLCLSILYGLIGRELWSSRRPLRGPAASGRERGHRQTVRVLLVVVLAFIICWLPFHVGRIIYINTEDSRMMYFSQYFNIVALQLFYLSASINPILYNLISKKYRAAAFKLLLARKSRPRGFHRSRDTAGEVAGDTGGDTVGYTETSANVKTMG

[4] = target: Sodium-dependent noradrenaline transporter (Homo sapiens, UniProt P23975)
Sodium-dependent noradrenaline transporter, sequence (P23975 whole entry): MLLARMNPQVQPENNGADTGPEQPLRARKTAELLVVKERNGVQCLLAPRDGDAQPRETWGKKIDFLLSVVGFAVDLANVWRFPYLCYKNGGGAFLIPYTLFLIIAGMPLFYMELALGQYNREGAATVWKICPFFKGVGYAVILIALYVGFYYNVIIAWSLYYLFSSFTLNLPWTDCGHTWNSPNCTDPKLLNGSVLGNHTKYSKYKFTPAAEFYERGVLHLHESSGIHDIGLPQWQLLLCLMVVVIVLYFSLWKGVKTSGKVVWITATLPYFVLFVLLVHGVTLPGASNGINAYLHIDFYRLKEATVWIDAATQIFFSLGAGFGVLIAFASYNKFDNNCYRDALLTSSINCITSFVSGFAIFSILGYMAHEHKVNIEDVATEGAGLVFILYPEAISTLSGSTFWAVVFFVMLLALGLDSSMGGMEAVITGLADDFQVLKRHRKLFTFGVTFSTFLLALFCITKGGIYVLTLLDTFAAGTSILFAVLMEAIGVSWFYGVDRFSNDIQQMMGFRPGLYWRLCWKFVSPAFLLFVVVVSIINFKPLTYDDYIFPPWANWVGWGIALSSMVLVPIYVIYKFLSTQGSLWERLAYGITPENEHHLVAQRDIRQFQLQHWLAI

[5] = target: T2, Alpha-2A adrenergic receptor (Homo sapiens, UniProt P08913); format: functional, cell-based
T2 sequence (P08913 whole entry): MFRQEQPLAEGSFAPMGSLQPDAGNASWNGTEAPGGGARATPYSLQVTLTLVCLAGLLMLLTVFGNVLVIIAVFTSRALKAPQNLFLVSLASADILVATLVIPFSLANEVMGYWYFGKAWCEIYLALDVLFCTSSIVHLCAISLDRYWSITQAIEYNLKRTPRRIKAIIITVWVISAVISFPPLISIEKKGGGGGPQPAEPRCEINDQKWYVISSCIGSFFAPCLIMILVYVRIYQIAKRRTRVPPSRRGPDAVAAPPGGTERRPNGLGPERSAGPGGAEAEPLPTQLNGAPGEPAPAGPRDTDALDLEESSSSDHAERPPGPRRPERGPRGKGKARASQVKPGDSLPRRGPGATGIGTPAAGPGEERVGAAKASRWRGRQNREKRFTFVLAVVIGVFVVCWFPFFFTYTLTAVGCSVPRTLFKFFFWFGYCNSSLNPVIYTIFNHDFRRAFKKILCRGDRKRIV

[6] = target: Glutamate receptor ionotropic, NMDA 1 (Rattus norvegicus, UniProt P35439)
Thromboxane A2 receptor = target: T3, Thromboxane A2 receptor (Homo sapiens, UniProt P21731)
T3 sequence (P21731 whole entry): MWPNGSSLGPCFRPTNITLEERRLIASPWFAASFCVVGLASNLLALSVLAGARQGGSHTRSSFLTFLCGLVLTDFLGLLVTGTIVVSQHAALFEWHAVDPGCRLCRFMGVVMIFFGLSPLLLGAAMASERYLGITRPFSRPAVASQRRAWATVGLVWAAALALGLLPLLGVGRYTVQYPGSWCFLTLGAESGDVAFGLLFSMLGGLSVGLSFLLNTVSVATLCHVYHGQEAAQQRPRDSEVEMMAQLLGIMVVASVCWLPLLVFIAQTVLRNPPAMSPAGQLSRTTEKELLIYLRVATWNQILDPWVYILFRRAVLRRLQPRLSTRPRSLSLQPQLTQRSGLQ

Adenosine receptor A1 = target: T4, Adenosine receptor A1 (Homo sapiens, UniProt P30542)
T4 sequence (P30542 whole entry): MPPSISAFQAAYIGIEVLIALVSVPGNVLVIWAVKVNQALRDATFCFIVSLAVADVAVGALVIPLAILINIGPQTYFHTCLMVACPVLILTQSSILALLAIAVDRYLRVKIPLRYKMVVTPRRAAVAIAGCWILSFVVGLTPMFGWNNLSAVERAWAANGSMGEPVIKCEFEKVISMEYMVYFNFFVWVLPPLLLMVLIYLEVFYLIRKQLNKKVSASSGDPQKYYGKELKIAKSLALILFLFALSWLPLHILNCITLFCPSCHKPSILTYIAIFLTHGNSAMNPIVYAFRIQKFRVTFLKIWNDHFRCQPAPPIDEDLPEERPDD

Cannabinoid receptor 1 = Cannabinoid receptor 1 (Homo sapiens, UniProt P21554); format: functional, cell-based
Cannabinoid receptor 1, sequence (P21554 whole entry): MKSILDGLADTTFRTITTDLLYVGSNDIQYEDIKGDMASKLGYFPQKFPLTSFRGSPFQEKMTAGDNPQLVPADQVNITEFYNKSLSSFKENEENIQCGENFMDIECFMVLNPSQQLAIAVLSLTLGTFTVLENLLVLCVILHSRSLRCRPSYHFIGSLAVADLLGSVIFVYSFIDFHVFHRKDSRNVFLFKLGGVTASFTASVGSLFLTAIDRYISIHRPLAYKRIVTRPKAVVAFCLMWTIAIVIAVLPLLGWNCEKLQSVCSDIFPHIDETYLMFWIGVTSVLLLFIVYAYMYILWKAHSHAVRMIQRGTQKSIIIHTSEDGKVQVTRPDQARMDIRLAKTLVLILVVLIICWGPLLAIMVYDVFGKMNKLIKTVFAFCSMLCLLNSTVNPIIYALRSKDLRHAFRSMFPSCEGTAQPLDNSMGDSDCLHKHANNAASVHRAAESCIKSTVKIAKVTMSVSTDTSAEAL

[7] = target: T5, Alpha-2B adrenergic receptor (Homo sapiens, UniProt P18089)
T5 sequence (P18089 whole entry): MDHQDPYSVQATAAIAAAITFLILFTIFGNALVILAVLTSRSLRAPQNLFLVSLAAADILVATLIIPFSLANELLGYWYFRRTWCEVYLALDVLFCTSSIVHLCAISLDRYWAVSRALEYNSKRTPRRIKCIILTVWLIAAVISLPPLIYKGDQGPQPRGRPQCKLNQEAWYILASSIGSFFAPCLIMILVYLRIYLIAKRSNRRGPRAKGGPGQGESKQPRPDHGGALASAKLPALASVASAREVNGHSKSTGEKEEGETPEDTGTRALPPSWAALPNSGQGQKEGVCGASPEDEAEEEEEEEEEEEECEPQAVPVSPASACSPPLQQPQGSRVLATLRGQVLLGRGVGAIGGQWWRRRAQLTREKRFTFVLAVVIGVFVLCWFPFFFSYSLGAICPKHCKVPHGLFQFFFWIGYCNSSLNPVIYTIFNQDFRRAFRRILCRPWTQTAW

[8] = target: T6, Alpha-1A adrenergic receptor (Homo sapiens, UniProt P35348); format: functional, cell-based
T6 sequence (P35348 whole entry): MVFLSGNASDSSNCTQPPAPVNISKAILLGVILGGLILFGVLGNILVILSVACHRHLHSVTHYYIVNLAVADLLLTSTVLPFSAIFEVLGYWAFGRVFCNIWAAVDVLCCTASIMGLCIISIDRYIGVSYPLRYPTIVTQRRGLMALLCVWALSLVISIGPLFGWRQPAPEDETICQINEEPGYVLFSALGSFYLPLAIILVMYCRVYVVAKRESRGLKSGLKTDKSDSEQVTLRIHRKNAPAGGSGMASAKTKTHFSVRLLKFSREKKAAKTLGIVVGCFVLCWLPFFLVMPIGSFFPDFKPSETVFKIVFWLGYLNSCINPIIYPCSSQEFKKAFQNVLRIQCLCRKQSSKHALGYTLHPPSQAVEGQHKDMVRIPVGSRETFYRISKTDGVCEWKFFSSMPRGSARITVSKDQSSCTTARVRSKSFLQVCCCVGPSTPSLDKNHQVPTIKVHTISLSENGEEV
Also: assay procedure not described here.

cGMP-inhibited 3',5'-cyclic phosphodiesterase 3A, sequence (Q14432 whole entry): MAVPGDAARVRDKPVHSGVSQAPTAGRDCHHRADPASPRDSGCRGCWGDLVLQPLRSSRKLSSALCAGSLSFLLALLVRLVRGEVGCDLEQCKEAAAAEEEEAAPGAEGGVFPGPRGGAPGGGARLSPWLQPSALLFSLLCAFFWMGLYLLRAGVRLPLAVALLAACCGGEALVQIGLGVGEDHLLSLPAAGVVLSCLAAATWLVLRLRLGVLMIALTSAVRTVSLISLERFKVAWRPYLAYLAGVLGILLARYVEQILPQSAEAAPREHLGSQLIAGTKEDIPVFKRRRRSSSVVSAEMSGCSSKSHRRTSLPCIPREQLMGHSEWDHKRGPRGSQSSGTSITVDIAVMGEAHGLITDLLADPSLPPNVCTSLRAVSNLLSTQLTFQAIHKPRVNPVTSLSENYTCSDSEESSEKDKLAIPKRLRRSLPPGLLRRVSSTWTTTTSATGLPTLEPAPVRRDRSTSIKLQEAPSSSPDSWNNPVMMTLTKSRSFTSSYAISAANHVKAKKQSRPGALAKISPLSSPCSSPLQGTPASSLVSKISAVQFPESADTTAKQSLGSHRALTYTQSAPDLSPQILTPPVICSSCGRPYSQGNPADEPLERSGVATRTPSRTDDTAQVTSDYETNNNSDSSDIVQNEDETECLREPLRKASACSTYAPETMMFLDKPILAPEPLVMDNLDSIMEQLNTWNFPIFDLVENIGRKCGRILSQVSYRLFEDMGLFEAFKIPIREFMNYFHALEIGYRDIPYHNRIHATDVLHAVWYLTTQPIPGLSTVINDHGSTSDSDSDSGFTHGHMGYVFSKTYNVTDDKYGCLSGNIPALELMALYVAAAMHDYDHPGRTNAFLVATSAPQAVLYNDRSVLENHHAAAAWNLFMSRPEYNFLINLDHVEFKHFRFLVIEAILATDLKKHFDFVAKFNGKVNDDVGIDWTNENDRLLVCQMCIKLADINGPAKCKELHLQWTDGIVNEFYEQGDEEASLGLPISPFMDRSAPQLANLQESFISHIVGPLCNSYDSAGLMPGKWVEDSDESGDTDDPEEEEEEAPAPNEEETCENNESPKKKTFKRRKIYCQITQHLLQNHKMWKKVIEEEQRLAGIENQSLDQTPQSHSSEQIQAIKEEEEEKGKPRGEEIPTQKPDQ

Work on `C[C@@H](Cc1ccccc1)N(C)Cc1ccccc1` [BENZPHETAMINE] yielded an AC50 [1] of over 30 µM, an AC50 ([2]; read-out: AC50) of 14.5 µM and an AC50 [3] of over 30 µM. It also gave an AC50 (Motilin receptor) of over 10 µM, an AC50 [4] of 0.036 µM and an AC50 [5] of over 10 µM. For the same compound, the AC50 [6] was over 10 µM, the AC50 (Thromboxane A2 receptor) was over 10 µM and the AC50 (Adenosine receptor A1) was over 10 µM. The AC50 (Cannabinoid receptor 1) was over 30 µM, the AC50 [7] was 2.8 µM and the AC50 [8] was 13 µM.

In the case of SITOSTEROLS, the AC50 [1] is reported as over 10 µM, the AC50 ([2]; human, cellular components) is reported as over 30 µM and the AC50 [3] is reported as over 30 µM. For the same compound, the AC50 (Motilin receptor) was over 30 µM, the AC50 [4] was over 30 µM and the AC50 [5] was over 30 µM. It also gave an AC50 [6] of over 30 µM, an AC50 (Thromboxane A2 receptor) of over 30 µM and an AC50 (Adenosine receptor A1) of over 30 µM. It also gave an AC50 (Cannabinoid receptor 1) of over 30 µM, an AC50 [7] of over 30 µM and an AC50 [8] of over 30 µM.

`O=C(C[S+]([O-])Cc1ccco1)NC/C=C\COc1cc(CN2CCCCC2)ccn1` (centres undefined) [LAFUTIDINE] showed an AC50 [1] of over 30 µM, an AC50 ([2]; read-out: AC50) of over 30 µM and an AC50 [3] of over 30 µM. The AC50 (Motilin receptor) was over 10 µM, the AC50 [4] was over 10 µM and the AC50 [5] was over 10 µM. It also gave an AC50 [6] of over 10 µM, an AC50 (Thromboxane A2 receptor) of over 10 µM and an AC50 (Adenosine receptor A1) of over 10 µM. It also gave an AC50 (Cannabinoid receptor 1) of over 30 µM, an AC50 [7] of over 10 µM and an AC50 [8] of over 30 µM.

With `C[C@H](N)C(=O)N[C@@H](CCC(N)=O)C(=O)O` [ALANYL GLUTAMINE] (H-Ala-Gln-OH) the AC50 [1] was over 30 µM, the AC50 ([2]; read-out: AC50) was over 30 µM and the AC50 [3] was over 30 µM. The AC50 (Motilin receptor) was over 30 µM, the AC50 [4] was over 30 µM and the AC50 [5] was over 30 µM. The AC50 [6] was over 30 µM, the AC50 (Thromboxane A2 receptor) was over 30 µM and the AC50 (Adenosine receptor A1) was over 30 µM. It also gave an AC50 (Cannabinoid receptor 1) of over 30 µM, an AC50 [7] of over 30 µM and an AC50 [8] of over 30 µM.

With `CCN(CC)C(C)C(=O)c1ccccc1` (centres undefined) [DIETHYLPROPION] the AC50 [1] was over 30 µM, the AC50 ([2]; read-out: AC50) was 6.5 µM and the AC50 [3] was over 30 µM. For the same compound, the AC50 (Motilin receptor) was over 10 µM, the AC50 [4] was over 30 µM and the AC50 [5] was over 10 µM. It also gave an AC50 [6] of over 10 µM, an AC50 (Thromboxane A2 receptor) of over 30 µM and an AC50 (Adenosine receptor A1) of over 30 µM. The AC50 (Cannabinoid receptor 1) was over 30 µM, the AC50 [7] was 13 µM and the AC50 [8] was over 30 µM.

`CCCCC[C@H](O)CC[C@@H]1[C@H]2Cc3cccc(OCC(=O)O)c3C[C@H]2C[C@H]1O` [TREPROSTINIL] gave an AC50 [1] of over 30 µM, an AC50 ([2]; read-out: AC50) of over 30 µM and an AC50 [3] of over 30 µM. The AC50 (Motilin receptor) was over 30 µM, the AC50 [4] was over 30 µM and the AC50 [5] was over 30 µM. For the same compound, the AC50 [6] was over 30 µM, the AC50 (Thromboxane A2 receptor) was over 30 µM and the AC50 (Adenosine receptor A1) was over 30 µM. For the same compound, the AC50 (Cannabinoid receptor 1) was over 30 µM, the AC50 [7] was over 30 µM and the AC50 [8] was over 30 µM.

Work on `CO/N=C(\C(=O)N[C@@H]1C(=O)N2C(C(=O)O)=C(CSc3nc(C)c(CC(=O)O)s3)CS[C@H]12)c1csc(N)n1` [CEFODIZIME] yielded an AC50 [1] of over 30 µM, an AC50 ([2]; read-out: AC50) of over 30 µM and an AC50 [3] of over 30 µM. It also gave an AC50 (Motilin receptor) of over 30 µM, an AC50 [4] of over 30 µM and an AC50 [5] of over 30 µM. It also gave an AC50 [6] of over 30 µM, an AC50 (Thromboxane A2 receptor) of over 30 µM and an AC50 (Adenosine receptor A1) of over 30 µM. The AC50 (Cannabinoid receptor 1) was over 30 µM, the AC50 [7] was over 30 µM and the AC50 [8] was over 30 µM.
